From article PMC13233820, “Recruitment of Mre11 to recombination sites during meiosis” (Nature Communications, 2026)

How the values were obtained:
Mer2 = experiment: Yeast two-hybrid; format: binding, Saccharomyces cerevisiae; details: SC-Leu-Ura-His + 25 mM 3-AT
Procedure: Bait and prey plasmids were co-transformed into yWL365 using the standard ‘LiAc’-based transformation and plated on SC-Leu-Ura selective media. At least four independent transformants were tested for Mer2-Mre11 interaction by spotting a dilution series on SC-Leu- Ura-His + 25 mM 3-AT (3-amino-1,2,4-triazole) and growing for 4-5 days at 30 °C.

Mer2 coiled-coil = experiment: ITC Mre11-C49 / Mer2 coiled-coil; format: binding, Saccharomyces cerevisiae; details: Mre11-C49 titrated into Mer2 coiled-coil; peer review file
Mer2 condensates = experiment: Colocalization of fluorescently-labeled Mer2 and Mre11 condensates; format: binding, Saccharomyces cerevisiae; details: 800 nM mScarlet-Mre11-C49 with 200 nM eGFP-Mer2, 30 min
Procedure: Fig. 4 Mer2 recruits Mre11 during meiosis. a Effect of 1,6-hexanediol treatment on meiotic Mre11^myc foci visualized by immunofluorescence analysis of yeast nuclear spreads 4 hours after transfer to SPM. […] At least 22 tetrads were dissected for each strain (n ≥ 88 spores). e Quantification of sub-population of cells showing discrete Mre11 foci and aggregated Mre11 foci in indicated strains. Images used for analysis were from the same experiments in (b) and (d). f Colocalization of fluorescently-labeled Mer2 with wild-type or truncated Mre11. […] The number of images analyzed for each sample were WT (n = 11), Mre11^Δ10-270 (n = 13), Mre11^Δ290-472 (n = 15), Mre11^ΔIDR (n = 10), Mre11^ΔC49 (n = 13). Error bars represent mean ± SD from the indicated (n) fields of view. p-values compared to Mre11-WT are: Mre11^Δ10-270 (0.006), Mre11^Δ290-472 (0.0003), Mre11^ΔIDR (<0.0001), Mre11^ΔC49 (<0.0001). g Colocalization of fluorescently-labeled Mre11-C49 and Mer2. Condensates were assembled by mixing 800 nM of ^mScarletMre11-C49 and 200 nM of ^eGFPMer2 for 30 min prior to imaging. […]
Proteins were diluted to a 10 × stock of their appropriate working concentrations in their respective storage buffers. […] Images were analyzed with ImageJ using a custom-made script. […] Masked foci were counted, and the intensity inside the focus mask was integrated. […] Data were analyzed using Graphpad Prism 10.4.0.

HisSUMO-Mer2 (wild type) = experiment: Co-expression pull-down assay (NiNTA, anti-MBP immunoblot); format: binding, Saccharomyces cerevisiae; details: co-expressed in E. coli
Procedure: Wild-type and mutant MBP-tagged Mre11-C49 and HisSUMO-tagged Mer2 were co-expressed in 50 mL of E. coli BL21 cultures and purified by affinity chromatography on Ni-NTA resin following a procedure similar to that described above. Briefly, cells were lysed by sonication and centrifuged at maximum speed for 30 mins at 4 °C on a table-top centrifuge. A small fraction of the supernatant was collected as ‘Input’ and the remainder was incubated with 120 µL Ni-NTA resin, pre-equilibrated with wash buffer (25 mM HEPES pH 7.5, 20 mM imidazole, 0.1 mM DTT, 0.1 mM PMSF, 10% glycerol), for 1 hour on a rotating wheel at 4 °C. The resin was washed twice with 2 ml in batch and five times with 2 ml on column before eluting with 250 µL of 500 mM imidazole in wash buffer. Input and elution fractions were separated by SDS-PAGE followed by immunoblotting with primary murine anti-MBP monoclonal antibody at 1:10,000 dilution (E8032S, NEB) and secondary goat anti-mouse IgG-HRP conjugated at 1:10,000 dilution (AP308P, Chemicon).

meiotic Mre11^myc foci = experiment: Immunofluorescence of meiotic Mre11myc foci, yeast nuclear spreads; format: cell-based, Saccharomyces cerevisiae; details: brief exposure to 1,6-hexanediol, prophase I spreads
Procedure: Following standard protocols, strains were patched on YPG plates, mated and streaked on YPD plates, and selected diploid colonies grown in liquid YPD at 30 °C, 250 rpm, overnight. For meiotic synchronization, diploid cultures grown overnight in YPD were transferred to YPA (1% yeast extract, 2% peptone, 1% potassium acetate) at OD600 0.2 and grown for 12–14 h at 30 °C, 250 rpm. Once the cultures reached OD600 between 1.2–1.6, cells were washed once with prewarmed sterile water and immediately transferred to sporulation medium supplemented with amino acids (320 µL amino acid complementation media for 100 mL of sporulation media (SPM)) and were kept shaking at 30 °C, 250 rpm during the entire meiotic time-course. For MMS and CPT (Sigma) sensitivity assays, serial dilutions of overnight cultures were spotted on freshly prepared YPD-MMS or YPD-CPT plates containing the indicated percentage of MMS or CPT, respectively. […]
(§1) Slides were blocked with 90% FBS, 1 × PBS for 1 h at room temperature in a humid chamber and then incubated with primary antibody (mouse mAb anti-myc, 1:200 (2276S, Cell Signaling Technology), rabbit anti-phospho H2A-S129, 1:200 (ab15083, abcam)) diluted in 3% BSA, 1 × PBS in a humid chamber for 2 h at 37 °C or overnight at 4 °C. […] Images were captured on a Zeiss Axio Observer with a 100 ×/1.4 NA oil immersion objective and were analyzed in ImageJ.

MRX condensates = format: biochemical, Saccharomyces cerevisiae; details: 5% 1,6-hexanediol, ten-minute treatment
Procedure: Experiments were performed without PEG. b, d Effect of DNase I, in the absence of PEG, on (b) Mre11 (n = 9 (no treatment) and 11 (DNase I)) and (d) MRX (n = 9 (no treatment) and 11 (DNase I)) condensates. Condensates were pre-assembled for 20 min with 5.7 nM pUC19 prior to challenge. Quantification represents total foci intensity (green) in a field of view and total number of foci per 1000 µm^2 (magenta). Foci intensity is normalized to the mean intensity of samples with DNA for (a, c) and untreated samples for (b, d). Error bars represent mean ± SD from the indicated (n) fields of view. e, f Effect of the presence of 5% PEG-3350 on (e) Mre11 (n = 12) and (f) MRX (n = 11) condensate formation. Quantification represents total foci intensity (green) in a field of view (normalized to the mean of + PEG images) and total number of foci per 1000 µm^2 (magenta). Error bars represent mean ± SD from the indicated (n) fields of view. g–j Effect of challenge with 5% 1,6-hexanediol and 0.5 M NaCl on (g, h) Mre11 and (i, j) MRX condensates. Condensates were assembled for 20 min prior to challenge and incubated for 15 min and 10 min, respectively, after challenge. […]
(§2) Proteins were diluted to a 10 × stock of their appropriate working concentrations in their respective storage buffers. […] Images were analyzed with ImageJ using a custom-made script. […] Data were analyzed using Graphpad Prism 10.4.0.

[1] = test system: MMS-induced Mre11^myc foci in vegetatively growing yeast; experiment: Immunofluorescence of MMS-induced Mre11myc foci, vegetative yeast nuclear spreads; format: cell-based, Saccharomyces cerevisiae
Procedure: Following standard protocols, strains were patched on YPG plates, mated and streaked on YPD plates, and selected diploid colonies grown in liquid YPD at 30 °C, 250 rpm, overnight. For meiotic synchronization, diploid cultures grown overnight in YPD were transferred to YPA (1% yeast extract, 2% peptone, 1% potassium acetate) at OD600 0.2 and grown for 12–14 h at 30 °C, 250 rpm. Once the cultures reached OD600 between 1.2–1.6, cells were washed once with prewarmed sterile water and immediately transferred to sporulation medium supplemented with amino acids (320 µL amino acid complementation media for 100 mL of sporulation media (SPM)) and were kept shaking at 30 °C, 250 rpm during the entire meiotic time-course. For MMS and CPT (Sigma) sensitivity assays, serial dilutions of overnight cultures were spotted on freshly prepared YPD-MMS or YPD-CPT plates containing the indicated percentage of MMS or CPT, respectively. Plates were grown for two days at 30 °C. For immunofluorescence of vegetatively growing cells, overnight cultures were refreshed by diluting to OD600 0.2 and grown for 3-4 hours to reach OD600 1.2–1.4 before subjecting to MMS or MMS followed by 5% 1,6-hexanediol treatment. For 5% 1,6-hexanediol treatment, cells were first converted to spheroplasts and then treated with 5% 1,6-hexanediol for 4-5 min. Spheroplasts were then immediately washed, lysed, and fixed using the protocol described below.
Meiotic cultures were harvested 4 h after transfer to SPM, washed with sterile cold water, and resuspended in 1 M sorbitol, 1 × PBS (pH 7), 10 mM DTT, 0.5 mg/ml zymolyase 20 T, and incubated for 30 mins at 30 °C with gentle shaking. […]
as §1

Mre11 condensates = format: biochemical, Saccharomyces cerevisiae; details: 5% 1,6-hexanediol, ten-minute treatment
Procedure: Experiments were performed without PEG. b, d Effect of DNase I, in the absence of PEG, on (b) Mre11 (n = 9 (no treatment) and 11 (DNase I)) and (d) MRX (n = 9 (no treatment) and 11 (DNase I)) condensates. Condensates were pre-assembled for 20 min with 5.7 nM pUC19 prior to challenge. Quantification represents total foci intensity (green) in a field of view and total number of foci per 1000 µm^2 (magenta). Foci intensity is normalized to the mean intensity of samples with DNA for (a, c) and untreated samples for (b, d). Error bars represent mean ± SD from the indicated (n) fields of view. e, f Effect of the presence of 5% PEG-3350 on (e) Mre11 (n = 12) and (f) MRX (n = 11) condensate formation. Quantification represents total foci intensity (green) in a field of view (normalized to the mean of + PEG images) and total number of foci per 1000 µm^2 (magenta). Error bars represent mean ± SD from the indicated (n) fields of view. g–j Effect of challenge with 5% 1,6-hexanediol and 0.5 M NaCl on (g, h) Mre11 and (i, j) MRX condensates. […] In the control reaction, an equivalent volume (1/20) of water was added instead of hexanediol. […]
as §2

Compound	Yeast two-hybrid interaction with Mer2 (in words) (Mer2)	ITC result (Mer2 coiled-coil)	Localization around Mer2 condensates (in words) (Mer2 condensates)	Interaction with Mer2 in pulldown (in words) (HisSUMO-Mer2 (wild type))	Effect on meiotic Mre11 foci (in words) (meiotic Mre11^myc foci)	Effect on MRX foci intensity (in words) (MRX condensates)	Effect on MMS-induced Mre11 foci (in words) ([1]; 5% 1,6-hexanediol, 4-5 min)	Percentage of aggregates ([1]; MMS + 5% 1,6-hexanediol 4-5 min)	Effect on Mre11 foci intensity (in words) (Mre11 condensates)
SYGLLNGRKTKTKTRSAASTKTASRRGKGRASRTPKTDILGSLLAKKRK [Mre11-C49, Mre11 C-terminal residues 644–692]	not sufficient for Mer2 binding	inconclusive	forms a halo-like structure around Mer2 condensates	directly binds Mer2	–	–	–	–	–
OCCCCCCO [1,6-hexanediol]	–	–	–	–	disassembles these foci	strong reduction in foci intensity	readily dissolved MMS-induced foci	100	strong reduction in foci intensity
